Each structure is given as a SMILES string. Converted amounts (≈) assume the structure as drawn.

A word on the melting point: it is the temperature of the solid-liquid transition.

Series [1] deals with T1, kinesin heavy chain Motor (Homo sapiens, UniProt P33176).
T1 construct: kinesin heavy chain Motor (Cytoskeleton, Cat # KR01-A); purchased Cytoskeleton KR01-A
T1 sequence (P33176 8-325 limits assumed): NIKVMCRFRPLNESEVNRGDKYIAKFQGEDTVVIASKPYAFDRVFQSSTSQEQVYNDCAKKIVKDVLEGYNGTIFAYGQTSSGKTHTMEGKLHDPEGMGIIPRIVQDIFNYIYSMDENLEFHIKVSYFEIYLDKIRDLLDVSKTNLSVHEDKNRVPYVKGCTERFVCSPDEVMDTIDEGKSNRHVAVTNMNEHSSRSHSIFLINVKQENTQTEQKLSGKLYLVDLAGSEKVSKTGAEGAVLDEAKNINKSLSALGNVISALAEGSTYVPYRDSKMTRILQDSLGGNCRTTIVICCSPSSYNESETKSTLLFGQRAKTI
Description: Kinesin ATPase activity assay (ELIPA kit, inorganic phosphate). Format: biochemical. To be noted: ATPase activity of kinesin, n = 2, read-out: IC 50 (μg/ml) for Kinesin inhibition (converted).

The next series relates to HeLa cell line. Description: MTT cytotoxicity assay on HeLa cells. To be noted: Homo sapiens, 24 h, read-out: IC 50 (μg/ml) ± SD on HeLa cell line. On the technique in general: Formazan colour is commonly taken as a measure of viable cells.

Description for HeLa cell line: HeLa cell line was obtained from National Cell Bank of Iran, Pasteur Institute of Iran.
Cytotoxic effects of synthesized compounds were determined using the MTT [3-(4,5-dimethylthiazol-2-yl)-2,5-diphenyltetrazolium bromide] assay [18-20]. Briefly, 5000 HeLa cells/well were seeded in a 96-well plate and cultured overnight. Different concentrations of synthesized compounds were added to each well. […] Then, the medium was removed, and the purple formazan crystals were dissolved in 150 μl dimethylsulfoxide (Merck, Germany). Absorbance was measured at 545 nm (630 nm as a reference) in Synergy H4 Hybrid Multi-Mode Microplate Reader (Biotek, Model: H4MLFPTAD). IC50 was calculated using CalcuSyn (BioSoft).
HeLa cells were incubated with different concentrations of newly synthesized compounds for 24 h and cytotoxicities were evaluated using MTT assay.

In the case of `CSc1ncc(C2NC(=S)NC3=C2C(=O)CC(C)(C)C3)n1Cc1ccccc1Cl` (stereo not drawn) [Compound 4d, 4-[1-(2-chlorobenyl)-2-methylthio-1H-imidazol-5-yl]-1,2,3,4,7,8-hexahydro-7,7 dimethyl-2-thio oxoquinazoline-5-(6H)-one], the melting point is 142 °C.

For the compound `CSc1ncc(C2NC(=S)NC3=C2C(=O)CC(C)(C)C3)n1Cc1ccc(F)cc1` (stereo not drawn) [Compound 4f, 4-[1-(4-fluorobenzyl)-2-methylthio-1H-imidazol-5-yl]-1,2,3,4,7,8-hexahydro-7,7-dimethyl-2-thiooxoquinazoline-5-(6H)-one], the melting point stood at 149 °C. Besides, in series [1], the IC50 was 460 µM. Moreover, the IC50 in the series on HeLa cell line stood at 339 ± 23 µg/mL (≈ 787 µM).

`CC1(C)CC(=O)C2=C(C1)NC(=S)NC2c1cccc(O)c1` (stereo not drawn) [dimethylenastrone, dimethylenastron, reference compound]: in the series on HeLa cell line, the IC50 was found to be 338 ± 26 µg/mL (≈ 1120 µM).

For `CSc1ncc(C2NC(=S)NC3=C2C(=O)CC(C)(C)C3)n1Cc1ccccc1` (stereo not drawn) [Compound 4b, 4-[1-benzyl-2-(methylthio)-1H-imidazol-5-yl)-1,2,3,4,7,8-hexahydro-7,7 dimethyl-2-thio oxoquinazoline-5-(6H)-one], the melting point stood at 157 °C. Moreover, in series [1], the IC50 was 187 µM. The IC50 with HeLa cell line came out at 301 ± 22 µg/mL (≈ 730 µM).

In the case of `CC(=O)O[C@H]1C(=O)[C@@]2(C)[C@H]([C@H](OC(=O)c3ccccc3)[C@]3(O)C[C@H](OC(=O)[C@H](O)[C@@H](NC(=O)c4ccccc4)c4ccccc4)C(C)=C1C3(C)C)[C@]1(OC(C)=O)CO[C@@H]1C[C@@H]2O` [Taxol, reference compound], the IC50 in series [1] is 8.2 µM.

On to `CSc1ncc(C2NC(=O)NC3=C2C(=O)CC(C)(C)C3)n1Cc1ccc(F)cc1` (stereo not drawn) [Compound 4e, 4-[1-(4-fluorobenzyl)-2-(methylthio)-1H-imidazol-5-yl]-3,4,7,8 – tetrahydro-7,7 dimethyl quinazoline-2,5-(1H,6H)-diones], for which the melting point was 82 °C. In addition, in series [1], the IC50 was 232 µM. Besides, in the series on HeLa cell line, the IC50 was 110 ± 28 µg/mL (≈ 265 µM).

Regarding `CSc1ncc(C2NC(=O)NC3=C2C(=O)CC(C)(C)C3)n1Cc1ccccc1Cl` (stereo not drawn) [Compound 4c, 4-[1-(2-chlorobenzyl)-2-(methylthio)-1H-imidazol-5-yl]-3,4,7,8-tetrahydro-7,7 dimethyl quinazoline-2,5-(1H,6H)-diones], the melting point was determined as 149 °C. Further, the IC50 in series [1] was 183 µM. For the same compound, in the series with HeLa cell line, the IC50 turned out to be 98 ± 19 µg/mL (≈ 227 µM).

As to `CSc1ncc(C2NC(=O)NC3=C2C(=O)CC(C)(C)C3)n1Cc1ccccc1` (stereo not drawn) [Compound 4a, 4-[1-benzyl-2-(methylthio)-1H-imidazol-5-yl)-3,4,7,8-tetrahydro-7,7 dimethyl-quinazoline-2,5-(1H,6H)-diones], the melting point was determined as 169 °C. The IC50 in series [1] was 182 µM. Also, the IC50 in the series with HeLa cell line came to 210 ± 21 µg/mL (≈ 530 µM).

For the origin of these results see PMC3891991, “Synthesis and molecular modeling of six novel monastrol analogues: evaluation of cytotoxicity and kinesin inhibitory activity against HeLa cell line” (DARU Journal of Pharmaceutical Sciences, 2013).
